# Measurements reported in ChEMBL document CHEMBL5154682, “TDP-43 Modulation by Tau-Tubulin Kinase 1 Inhibitors: A New Avenue for Future Amyotrophic Lateral Sclerosis Therapy” (J Med Chem, 2022).
# pIC50: −log10 of the molar value. Calls of active or inactive are those of the source. The rule behind the calls is not given here.
# Experiments:
# Tau-tubulin kinase 1 [1] = target: T1, Tau-tubulin kinase 1 (Homo sapiens, UniProt Q5TCY1); conditions: dose 10.0 µM, time 30.0 min
# Tau-tubulin kinase 1 [2] = target: T1, Tau-tubulin kinase 1
# Tau-tubulin kinase 2 [3] = target: T2, Tau-tubulin kinase 2 (Homo sapiens, UniProt Q6IQ55)
# T2 sequence (Q6IQ55 whole entry): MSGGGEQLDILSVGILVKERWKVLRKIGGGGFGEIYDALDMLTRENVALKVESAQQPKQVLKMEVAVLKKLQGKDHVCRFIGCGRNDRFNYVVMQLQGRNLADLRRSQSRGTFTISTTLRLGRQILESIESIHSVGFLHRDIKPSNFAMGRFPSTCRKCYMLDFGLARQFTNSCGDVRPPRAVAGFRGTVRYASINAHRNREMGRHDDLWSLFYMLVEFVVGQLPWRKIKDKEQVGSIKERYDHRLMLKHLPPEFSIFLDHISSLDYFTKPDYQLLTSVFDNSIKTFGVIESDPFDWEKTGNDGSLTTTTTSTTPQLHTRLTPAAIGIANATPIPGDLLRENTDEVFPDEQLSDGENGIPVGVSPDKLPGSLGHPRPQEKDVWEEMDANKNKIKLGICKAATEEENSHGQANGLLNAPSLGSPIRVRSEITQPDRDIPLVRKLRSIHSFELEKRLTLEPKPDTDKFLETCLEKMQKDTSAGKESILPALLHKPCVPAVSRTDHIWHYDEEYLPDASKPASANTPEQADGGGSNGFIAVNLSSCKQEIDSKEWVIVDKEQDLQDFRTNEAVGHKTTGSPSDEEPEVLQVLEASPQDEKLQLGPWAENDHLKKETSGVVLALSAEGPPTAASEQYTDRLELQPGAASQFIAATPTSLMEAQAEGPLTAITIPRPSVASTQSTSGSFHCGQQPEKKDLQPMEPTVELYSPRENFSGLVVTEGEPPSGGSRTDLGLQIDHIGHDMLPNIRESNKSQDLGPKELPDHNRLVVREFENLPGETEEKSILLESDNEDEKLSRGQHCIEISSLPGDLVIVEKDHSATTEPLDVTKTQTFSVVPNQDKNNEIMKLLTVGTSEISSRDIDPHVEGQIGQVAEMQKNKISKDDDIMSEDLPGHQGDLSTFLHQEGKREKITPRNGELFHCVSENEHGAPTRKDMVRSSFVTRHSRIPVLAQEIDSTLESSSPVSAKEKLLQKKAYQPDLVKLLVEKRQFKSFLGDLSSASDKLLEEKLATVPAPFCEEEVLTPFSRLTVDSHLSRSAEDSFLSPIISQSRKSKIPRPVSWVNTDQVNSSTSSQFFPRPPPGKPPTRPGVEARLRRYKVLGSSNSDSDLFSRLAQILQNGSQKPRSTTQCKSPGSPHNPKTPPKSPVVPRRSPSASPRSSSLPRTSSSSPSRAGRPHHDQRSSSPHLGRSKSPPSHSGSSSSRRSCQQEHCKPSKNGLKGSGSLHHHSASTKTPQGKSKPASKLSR
# [4] = Selectivity index, ratio of IC50 for recombinant human TTBK1 to IC50 for recombinant human TTBK2
# [5] = Permeability of the compound at pH 7.4 PBS/EtOH buffer (70:30) by PAMPA-BBB assay
# Tau-tubulin kinase 2 [6] = target: T2, Tau-tubulin kinase 2; conditions: dose 10.0 µM, time 30.0 min
# SH-SY5Y [7] = assay: Neuroprotective activity against ethacrynic acid-induced neurotoxicity human SH-SY5Y cells assessed as decrease in TDP-43 phosphorylation at Ser409 at 5 uM preincubated for 1 hr followed by EA addition and further incubated for 24 hrs by Western blot analysis; type: functional, cell-based; conditions: time 25.0 hrs
# Tau-tubulin kinase 1 [8] = target: T1, Tau-tubulin kinase 1; assay: Inhibition of TTBK1 in sporadic ALS patient derived human lymphoblasts assessed as reduction in cytosolic TDP-43 levels at 5 to 10 uM treated for 24 hrs by Western blot analysis; type: cell-based; conditions: Lymphoblastoid cell, dose 5-10 µM
# SH-SY5Y [9] = assay: Neuroprotective activity against ethacrynic acid-induced neurotoxicity human SH-SY5Y cells assessed as increase in cell viability at 5 uM preincubated for 1 hr followed by ethacrynic acid addition and further incubated for 24 hrs by MTT assay; type: functional, cell-based; conditions: time 25.0 hrs
# Tau-tubulin kinase 1 [10] = target: T1, Tau-tubulin kinase 1; assay: Inhibition of TTBK1 in sporadic ALS patient derived human lymphoblasts assessed as recovery nuclear localization of TDP-43 levels at 5 to 10 uM treated for 24 hrs by Western blot analysis; type: cell-based; conditions: Lymphoblastoid cell, dose 5-10 µM
# Tau-tubulin kinase 1 [11] = target: T1, Tau-tubulin kinase 1; assay: Inhibition of TTBK1 in sporadic ALS patient derived human lymphoblasts assessed as reduction in TDP-43 phosphorylation levels at 5 to 10 uM treated for 24 hrs by Western blot analysis; type: cell-based; conditions: Lymphoblastoid cell, dose 5-10 µM
# SH-SY5Y [12] = assay: Neuroprotective activity against okadaic acid-induced neurotoxicity in human SH-SY5Y cells assessed as reduction in Tau hyperphosphorylation by measuring cell viability at 1 to 5 uM incubated for 24 hrs by MTT assay; type: functional, cell-based; conditions: dose 1-5 µM
# Tau-tubulin kinase 1 [13] = target: T1, Tau-tubulin kinase 1; remark: listed apart in the source
# Tau-tubulin kinase 2 [14] = target: T2, Tau-tubulin kinase 2; assay: Inhibition of TTBK2 (unknown origin)
# T1 sequence (Q5TCY1 whole entry): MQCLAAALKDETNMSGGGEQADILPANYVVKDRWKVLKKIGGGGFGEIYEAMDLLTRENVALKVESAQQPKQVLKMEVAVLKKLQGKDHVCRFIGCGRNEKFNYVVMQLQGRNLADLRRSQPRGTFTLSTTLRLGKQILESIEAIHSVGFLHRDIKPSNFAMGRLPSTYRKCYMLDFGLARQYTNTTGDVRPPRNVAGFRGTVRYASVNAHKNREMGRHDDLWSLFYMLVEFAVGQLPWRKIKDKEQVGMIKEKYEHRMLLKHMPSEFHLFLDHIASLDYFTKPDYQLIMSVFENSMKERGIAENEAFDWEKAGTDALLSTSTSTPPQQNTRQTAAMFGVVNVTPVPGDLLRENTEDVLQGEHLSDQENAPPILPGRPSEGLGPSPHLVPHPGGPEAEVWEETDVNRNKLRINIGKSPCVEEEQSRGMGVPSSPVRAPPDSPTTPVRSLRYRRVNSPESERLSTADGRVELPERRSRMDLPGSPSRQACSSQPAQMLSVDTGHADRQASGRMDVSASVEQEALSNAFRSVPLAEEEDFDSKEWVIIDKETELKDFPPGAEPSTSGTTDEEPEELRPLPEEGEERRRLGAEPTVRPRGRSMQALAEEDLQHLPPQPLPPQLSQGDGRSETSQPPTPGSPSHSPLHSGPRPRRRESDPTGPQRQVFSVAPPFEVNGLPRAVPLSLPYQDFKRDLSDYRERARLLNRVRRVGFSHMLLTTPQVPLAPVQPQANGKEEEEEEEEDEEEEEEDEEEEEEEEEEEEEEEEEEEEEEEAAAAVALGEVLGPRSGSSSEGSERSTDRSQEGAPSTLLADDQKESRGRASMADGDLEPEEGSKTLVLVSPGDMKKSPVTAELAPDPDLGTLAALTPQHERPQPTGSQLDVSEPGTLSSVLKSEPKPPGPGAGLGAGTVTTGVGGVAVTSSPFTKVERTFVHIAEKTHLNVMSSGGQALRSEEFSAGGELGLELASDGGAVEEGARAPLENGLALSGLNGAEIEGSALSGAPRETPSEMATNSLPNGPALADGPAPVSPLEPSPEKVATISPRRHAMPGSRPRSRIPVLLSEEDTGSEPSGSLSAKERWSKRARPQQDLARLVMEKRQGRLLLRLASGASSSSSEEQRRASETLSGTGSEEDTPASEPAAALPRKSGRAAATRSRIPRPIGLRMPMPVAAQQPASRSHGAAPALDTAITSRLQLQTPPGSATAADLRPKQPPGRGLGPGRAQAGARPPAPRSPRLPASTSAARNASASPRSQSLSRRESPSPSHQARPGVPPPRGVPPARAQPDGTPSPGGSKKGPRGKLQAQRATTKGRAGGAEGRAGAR
SMILES,permeability [5],pIC50 (Tau-tubulin kinase 1 [2]),pIC50 (Tau-tubulin kinase 2 [3]),Selectivity Index [4],other results
O=C(c1ccc(Nc2ncnc3[nH]ccc23)cc1)c1ccc(Cl)c(Cl)c1,,,,,inhibition (Tau-tubulin kinase 1 [1]): 9%
c1nc(Nc2ccc(N3CCOCC3)cc2)c2cc[nH]c2n1,,5.31,4.80,0.3,
Oc1ccc(CCNc2ncnc3[nH]ccc23)cc1,,4.89,4.42,0.33,
Clc1ccc(Nc2ncnc3sccc23)cc1,,,,,inhibition (Tau-tubulin kinase 1 [1]): 20%
FC(F)(F)c1cccc(Oc2ccc(Nc3ncnc4[nH]ccc34)cc2)c1,,,,,inhibition (Tau-tubulin kinase 2 [6]): 1%
Cc1ccc(Cn2cc(COc3ccc(Nc4ncnc5[nH]ccc45)cc3)nn2)cc1,Impermeable,6.00,5.76,0.57,
c1ccc(CCn2cc(COc3ccc(Nc4ncnc5[nH]ccc45)cc3)nn2)cc1,Impermeable,6.41,5.58,0.15,
FC(F)(F)Oc1ccc(Nc2ncnc3[nH]ccc23)cc1,Impermeable,6.00,5.06,0.11,
c1ccc(Nc2ncnc3sccc23)cc1,,,,,inhibition (Tau-tubulin kinase 1 [1]): 17%
CCOc1ccc(Nc2ncnc3[nH]ccc23)cc1,Impermeable,5.64,4.86,0.16,Activity (SH-SY5Y [12]): Active
CC[C@@](C)(O)C#Cc1cc2c(ccn2-c2cc(OC)nc(N)n2)cn1,,,,,pIC50 (Tau-tubulin kinase 1 [13]): 8.80; pIC50 (Tau-tubulin kinase 2 [14]): 8.57
COC(=O)c1cc(Nc2ncnc3[nH]ccc23)ccc1Br,,5.66,5.38,,
CC(C)Oc1ccc(Nc2ncnc3[nH]ccc23)cc1,Permeable,5.82,5.08,0.17,Activity (SH-SY5Y [12]): Active
c1ccc(Nc2ncnc3[nH]ccc23)cc1,Permeable,6.10,5.77,0.47,
Clc1ccc(CCNc2ncnc3[nH]ccc23)cc1,,4.74,4.07,,
Oc1ccc(CNc2ncnc3[nH]ccc23)cc1,,,,,inhibition (Tau-tubulin kinase 2 [6]): 10%; inhibition (Tau-tubulin kinase 1 [1]): 23%
c1cncc(Oc2ccc(Nc3ncnc4[nH]ccc34)cc2)c1,Impermeable,6.12,5.22,0.12,
COc1ccc(Nc2ncnc3[nH]ccc23)cc1,Impermeable,6.28,5.88,0.39,
Clc1cccc(Cn2cc(COc3ccc(Nc4ncnc5[nH]ccc45)cc3)nn2)c1,Impermeable,6.32,5.69,0.24,
c1cc(Nc2ncnc3[nH]ccc23)cc(N2CCOCC2)c1,,5.33,5.24,0.82,
Clc1ccccc1Nc1ncnc2[nH]ccc12,,4.66,4.38,0.51,

SMILES,permeability [5],pIC50 (Tau-tubulin kinase 1 [2]),pIC50 (Tau-tubulin kinase 2 [3]),Selectivity Index [4],other results
c1nc(NC2CCCCC2)c2cc[nH]c2n1,,,,,inhibition (Tau-tubulin kinase 2 [6]): 15%; inhibition (Tau-tubulin kinase 1 [1]): 3%
Oc1cccc(Nc2ncnc3[nH]ncc23)c1,,5.04,,0.22,inhibition (Tau-tubulin kinase 2 [6]): 13%
CC(=O)c1ccc(Nc2ncnc3[nH]ccc23)cc1,,5.37,5.03,0.46,
c1ccc(-n2cc(COc3ccc(Nc4ncnc5[nH]ccc45)cc3)nn2)cc1,,,,,inhibition (Tau-tubulin kinase 2 [6]): 1%; inhibition (Tau-tubulin kinase 1 [1]): 29%
c1cc(Nc2ncnc3[nH]ccc23)c2c(c1)OCO2,Permeable,5.80,5.12,0.21,Activity (SH-SY5Y [12]): Active
CC1(N)CCN(Cc2ccn3ncnc(Nc4cc(O)cc(Br)c4)c23)CC1,,,,,pIC50 (Tau-tubulin kinase 2 [14]): 6.77
Oc1ccc(Nc2ncnc3[nH]ncc23)cc1,,,,,inhibition (Tau-tubulin kinase 2 [6]): 1%; inhibition (Tau-tubulin kinase 1 [1]): 3%
Clc1ccc(CNc2ncnc3[nH]ccc23)cc1,,,,,inhibition (Tau-tubulin kinase 2 [6]): 10%; inhibition (Tau-tubulin kinase 1 [1]): 32%
Oc1ccccc1Nc1ncnc2[nH]ccc12,,,,,inhibition (Tau-tubulin kinase 2 [6]): 1%; inhibition (Tau-tubulin kinase 1 [1]): 14%
FC(F)(F)c1ccc(Oc2ccc(Nc3ncnc4[nH]ccc34)cc2)cc1,,,,,inhibition (Tau-tubulin kinase 2 [6]): 5%
c1nc(Nc2ccc(N3CCOCC3)cc2)c2cn[nH]c2n1,,,,,inhibition (Tau-tubulin kinase 2 [6]): 12%; inhibition (Tau-tubulin kinase 1 [1]): 25%
Clc1cccc(Nc2ncnc3[nH]ccc23)c1,,4.82,4.86,1.09,
Clc1ccc(Nc2ncnc3[nH]ccc23)cc1,,5.49,4.69,0.15,
Oc1ccc(Nc2ncnc3[nH]ccc23)cc1,,5.52,5.13,0.45,
Clc1ccc(Oc2ccc(Nc3ncnc4[nH]ccc34)cc2)cc1Cl,Permeable,5.64,5.24,0.4,
Clc1ccc(Nc2ncnc3[nH]ncc23)cc1,,,,,inhibition (Tau-tubulin kinase 2 [6]): 1%; inhibition (Tau-tubulin kinase 1 [1]): 8%
c1cc2c(c(Nc3ncnc4[nH]ccc34)c1)CCCC2,,,,,inhibition (Tau-tubulin kinase 2 [6]): 10%; inhibition (Tau-tubulin kinase 1 [1]): 23%
Clc1ccccc1Cn1cc(COc2ccc(Nc3ncnc4[nH]ccc34)cc2)nn1,Impermeable,6.44,5.56,0.13,
Nc1nc(Nc2ccc(Oc3ccc(C(F)(F)F)cc3)cc2)c2cc[nH]c2n1,Permeable,6.42,,0.13,Activity (SH-SY5Y [12]): Active
Oc1cccc(Nc2ncnc3[nH]ccc23)c1,,5.21,5.17,0.9,
Clc1ccc(Cn2cc(COc3ccc(Nc4ncnc5[nH]ccc45)cc3)nn2)cc1,Impermeable,6.21,5.54,0.21,

# Second part, led by results:
permeability [5],SMILES,pIC50 (Tau-tubulin kinase 1 [2]),pIC50 (Tau-tubulin kinase 2 [3]),Selectivity Index [4],other results
Permeable,Nc1ccc(Sc2ccc(Nc3ncnc4[nH]ccc34)cc2)cc1,,,,
Permeable,CN(C)CCCN1c2ccccc2Sc2ccccc21 [PROMAZINE],,,,
Permeable,Clc1cccc(Oc2ccc(Nc3ncnc4[nH]ccc34)cc2)c1,,,,Activity (SH-SY5Y [7]): Active; Activity (Tau-tubulin kinase 1 [8]): Active; inhibition (Tau-tubulin kinase 2 [6]): 1%; Activity (SH-SY5Y [9]): Active; Activity (Tau-tubulin kinase 1 [10]): Active; Activity (Tau-tubulin kinase 1 [11]): Active; Activity (SH-SY5Y [12]): Active
Permeable,Cn1c(=O)c2c(ncn2C)n(C)c1=O [CAFFEINE],,,,
Permeable,Brc1ccc(Oc2ccc(Nc3ncnc4[nH]ccc34)cc2)cc1,,,,
Permeable,Cc1cccc(Oc2ccc(Nc3ncnc4[nH]ccc34)cc2)c1,,,,
Permeable,Fc1ccc(Oc2ccc(Nc3ncnc4[nH]ccc34)cc2)cc1,,,0.25,
Permeable,COc1ccc(Oc2ccc(Nc3ncnc4[nH]ccc34)cc2)cc1,,,,
Permeable,Clc1ccccc1Oc1ccc(Nc2ncnc3[nH]ccc23)cc1,,,,
Permeable,Nc1nc(Nc2ccc(Oc3ccc(Cl)cc3)cc2)c2cc[nH]c2n1,,,,
Permeable,CN1C(C(=O)Nc2ccccn2)=C(O)c2ccccc2S1(=O)=O [PIROXICAM],,,,
Permeable,O=C(c1ccc(F)cc1)c1ccc(Nc2ncnc3[nH]ccc23)cc1,,,,
Permeable,COc1cccc(Oc2ccc(Nc3ncnc4[nH]ccc34)cc2)c1,,,,Activity (SH-SY5Y [12]): Active
Permeable,Cc1ccc(Oc2ccc(Nc3ncnc4[nH]ccc34)cc2)cc1,,,,Activity (SH-SY5Y [7]): Active; Activity (SH-SY5Y [9]): Active; Activity (SH-SY5Y [12]): Active
Permeable,Nc1nc(Nc2ccc(Oc3cccc(Cl)c3)cc2)c2cc[nH]c2n1,,,0.12,
Permeable,CCn1cc(C(=O)O)c(=O)c2cc(F)c(N3CCNCC3)nc21 [ENOXACIN],,,,
Permeable,Nc1nc(Nc2ccc(Oc3cccc(C(F)(F)F)c3)cc2)c2cc[nH]c2n1,,,0.33,
Permeable,c1ccc(Oc2ccc(Nc3ncnc4[nH]ccc34)cc2)cc1,,,,
Permeable,O=[N+]([O-])c1ccc(Oc2ccc(Nc3ncnc4[nH]ccc34)cc2)cc1,,,,
Permeable,c1ccc(COc2ccc(Nc3ncnc4[nH]ccc34)cc2)cc1,,,,
Permeable,CNCCCN1c2ccccc2CCc2ccccc21 [DESIPRAMINE],,,,
Permeable,O=C(c1ccccc1)c1ccc(Nc2ncnc3[nH]ccc23)cc1,,,,Activity (SH-SY5Y [12]): Active
